Values after ≈ are worked out from the molar mass of the structure shown.
Key:
RAW 264.7 cells [1] = experiment: MTT assay, LPS-induced reduction of cell viability; assay type: cell-based, murine; settings: 18 h
Method: In in vitro cell-based experiments, cells were incubated in serum-free DMEM medium (starvation medium) for 6 h and then incubated for an additional 18 h in the presence of LPS (1 μg/mL). LPS was used as a pro-inflammatory and pro-oxidant stimulus. Cells untreated and not exposed to LPS stimulus were used as controls. The Methyl Thiazolyl Tetrazolium (MTT) assay was used to assess the viability of RAW 264.7 cells under various experimental conditions. Cells were seeded in a 96-well plate (15 × 10^3 cells/well) in complete medium and incubated overnight. Next, cells were starved for 6 h, and then treated for an additional 18 h with OA and OA loaded in the two different formulations (ME-1-OA and ME-2-OA) at various concentrations, in the absence or presence of LPS (1 μg/mL). […] Subsequently, cells were incubated with a 0.5 mg/mL solution of MTT (100 μL/well) for 1 h in the dark at 37 °C. After a wash in PBS, the insoluble formazan crystals were dissolved by adding 100 μL/well of dimethyl sulfoxide (DMSO). The iMARK microplate reader (Bio-Rad, Hercules, CA, USA) was used to measure absorbance values at a wavelength of 595 nm. Data were reported in percentage terms compared with untreated control cells not exposed to LPS. The experiment was repeated in triplicate.

[2] = Saturation solubility of OA in different oils and surfactants; assay type: physicochemical; settings: thermodynamic from solid
Method: The solubility of OA in different vehicles was defined by adding an excess of OA to 2 mL of each of the tested solvents/tensides: Water, Capmul PG-8/NF, Capmul PG-12/NF, Capryol 90, Captex 300, Captex 355, Cremophor EL, Etyl Oleate, Isoprpyl myristate, Labrafac lipophile, Labrafilm 1944, Labrafilm 2125, Labrasol, Labrasol ALF, Lauroglycol 90, Nigella Oil, PEG400, Soybean Oil, Sunflower Oil, Transcutol, Triacetine, Tween 20 and Tween 80. Each mixture of solvent and OA was stirred for 24 h at 25 °C, then it was centrifuged at 14,000× g for 10 min. After removing the precipitate, the supernatant was diluted with MeOH and analyzed by HPLC-DAD to determine the concentration of the OA. The analyses were performed in triplicate.

RAW 264.7 cells [3] = experiment: MTT assay, cell viability without LPS; assay type: cell-based, murine; settings: 18 h, compared to untreated control cells
Method: The murine macrophages RAW 264.7 cell line (ATCC TIB-71™) was used in this study. Cells were grown in DMEM culture medium supplemented with L-glutamine (2 mM), streptomycin (100 µg/mL) and penicillin (100 U/mL), and 10% Heat-Inactivated Fetal Bovine Serum (HI-FBS), at 37 °C in 5% CO2 atmosphere. HI-FBS was obtained by incubating FBS at 55 °C for 30 min. Upon reaching 90% confluence, macrophage subcultures were prepared by scraping cells and adding appropriate dilutions of the cell suspension to a new plate. The culture medium was replaced every 3 days. The Methyl Thiazolyl Tetrazolium (MTT) assay was used to assess the viability of RAW 264.7 cells under various experimental conditions. Cells were seeded in a 96-well plate (15 × 10^3 cells/well) in complete medium and incubated overnight. Next, cells were starved for 6 h, and then treated for an additional 18 h with OA and OA loaded in the two different formulations (ME-1-OA and ME-2-OA) at various concentrations, in the absence or presence of LPS (1 μg/mL). […] Subsequently, cells were incubated with a 0.5 mg/mL solution of MTT (100 μL/well) for 1 h in the dark at 37 °C. After a wash in PBS, the insoluble formazan crystals were dissolved by adding 100 μL/well of dimethyl sulfoxide (DMSO). The iMARK microplate reader (Bio-Rad, Hercules, CA, USA) was used to measure absorbance values at a wavelength of 595 nm. […]

[4] = In vitro release, dialysis bag method, EtOH:PBS (30:70); assay type: physicochemical; settings: 6 h, 37 °C
Method: The release studies of OA from MEs in comparison to OA solution (SDS 0.5% p/V in H2O) were carried out with the dialysis bag method (regenerated cellulose dialysis membranes, Spectrum Laboratories, Inc., Breda, The Netherlands, MWCO 12–14 kD). Two mL of the OA-MEs or the solution were placed into a 12–14 kDa dialysis membrane and immersed into 200 mL of the release medium at 37 °C under magnetic stirring, using EtOH:PBS (30:70) as the release medium. In vitro release study was also carried out in the simulated gastric fluid (SGF) medium at pH 1.2 for 2 h followed by simulated intestinal fluid (SIF) at pH 6.8 for 6 h. The composition of the gastric fluid was 2 g of NaCl and 7 mL of HCl per liter of deionized water. The intestinal fluid was composed of 6.805 g of KH2PO4 and 0.896 g of NaOH per liter of deionized water. At predetermined time intervals, 1 mL of each release medium was withdrawn and replaced with an equal volume of fresh solution. The OA concentration in samples was finally determined by HPLC-DAD. All studies were performed in triplicate.
To evaluate the kinetics and mechanism of drug release from the microemulsions, the Korsmeyer–Peppas model, Hixson–Crowell model and Higuchi model, and the first order and zero order mathematical models, were used, and the best-fitted model was selected based on high regression coefficient (R^2) value for the release data.

RAW 264.7 cells [5] = experiment: Intracellular ROS production (DCFDA probe) under LPS; assay type: cell-based, murine; settings: 18 h
Method: In in vitro cell-based experiments, cells were incubated in serum-free DMEM medium (starvation medium) for 6 h and then incubated for an additional 18 h in the presence of LPS (1 μg/mL). LPS was used as a pro-inflammatory and pro-oxidant stimulus. Cells untreated and not exposed to LPS stimulus were used as controls. DCFDA fluorescent probe was used for sensitive and rapid quantification of intracellular ROS in response to LPS stimulus. Cells were seeded in a 96-well plate (20 × 10^3 cells/well) in complete medium and incubated overnight. After 6 h starvation, cells were treated for an additional 18 h with OA and OA loaded in the two different formulations (ME-1-OA and ME-2-OA) at various concentrations, in the absence or presence of LPS (1 μg/mL). […] Next, DCFDA probe (10 μM in PBS) was added to each well and incubated in the dark for 1.5 h at 37 °C. Fluorescence values were measured at excitation and emission wavelengths of 485 and 538 nm, respectively, using a fluorescence microplate reader (Fluoroskan Ascent^TM FL Microplate Fluorometer, Thermo Fisher Scientific, (Waltham, MA, USA). The level of intracellular ROS was normalized to cell viability. Data were reported in percentage terms compared with untreated control cells not exposed to LPS. The experiment was repeated in triplicate.

[6] = design: method as in PMID 17163409; settings: water; cited from earlier work
[7] = design: method as in PMID 17163409; settings: rats, oral doses of 25 and 50 mg/kg; cited from earlier work
[8] = Parallel artificial membrane permeability assay (PAMPA); assay type: in vitro ADME; settings: room temperature, read-out: permeability coefficient (Pe)
Method: The test was carried out in a 96-well, MultiScreen-IP PAMPA (Millipore corporation) filter plate in order to evaluate the ability of compounds to diffuse from a donor compartment into an acceptor compartment. EtOH:PBS (30:70) mixture was selected as the acceptor medium for ME-1-OA and EtOH:PBS (5:95) for ME-2-OA. Each membrane was activated with a combination of lecithin and cholesterol, 10 g/L and 8 g/L, respectively, in 1,7-octadiene. Immediately after the deposition of the solution (5 µL), 250 µL of OA solution and appropriately diluted MEs-OA were added to each well of the donor plate. Each receptor plate was filled with 250 µL of acceptor medium. The plate was incubated at room temperature for 1 h. Then, the samples were withdrawn, properly diluted with methanol, centrifuged for 10 min at 14,000× g, and the OA concentration determined by HPLC-DAD. The permeability coefficient Pe (cm/s) was calculated according to the following equation: Pe=−ln 1−CAt/Ceq/A 1/VD+1/VAt where A is the active surface area (0.3 cm^2 × apparent porosity of the filter), VD and VA the well volume of the donor and acceptor plate (mL), respectively, t the incubation time (s), and CAt and CDt the concentration of OA in the acceptor and donor plate at time t, respectively. Ceq was calculated according to: Ceq=CDt × VD+CAt × VA/VA+VD

[9] = LPS 1 μg/mL, compared with unstimulated control cells

## CC1(C)CC[C@]2(C(=O)O)CC[C@]3(C)C(=CC[C@@H]4[C@@]5(C)CC[C@H](O)C(C)(C)[C@@H]5CC[C@]43C)[C@@H]2C1 [OA, Oleanolic acid]
RAW 264.7 cells [1]; free OA 0.05–1 μg/mL with LPS 1 μg/mL
  protective effect against LPS-induced reduction of cell viability: no significant protective effect
[2]; oil or lipid, in Capmul PG-8/NF, 24 h at 25 °C
  solubility at 24 h: 19.72 ± 0.13 mg/mL (≈ 43.2 mM)
[2]; oil or lipid, in Capmul PG-12/NF, 24 h at 25 °C
  solubility at 24 h: 16.4 ± 1.04 mg/mL (≈ 36 mM)
[2]; oil or lipid, in Capryol 90, 24 h at 25 °C
  solubility at 24 h: 24.9 ± 0.9 mg/mL (≈ 54.6 mM)
[2]; oil or lipid, in Captex 300, 24 h at 25 °C
  solubility at 24 h: 3.74 ± 0.1 mg/mL (≈ 8.19 mM)
[2]; oil or lipid, in Captex 355, 24 h at 25 °C
  solubility at 24 h: 3.19 ± 0.24 mg/mL (≈ 6.98 mM)
[2]; oil or lipid, in Etyloleate, 24 h at 25 °C
  solubility at 24 h: 2.13 ± 0.21 mg/mL (≈ 4.66 mM)
[2]; oil or lipid, in Isopropil myristate, 24 h at 25 °C
  solubility at 24 h: 9.44 ± 1.05 mg/mL (≈ 20.7 mM)
[2]; oil or lipid, in Labrafac Lipophile, 24 h at 25 °C
  solubility at 24 h: 13.3 ± 0.87 mg/mL (≈ 29.1 mM)
[2]; oil or lipid, in Labrasol ALF, 24 h at 25 °C
  solubility at 24 h: 12 ± 0.84 mg/mL (≈ 26.2 mM)
[2]; oil or lipid, in Labrasol, 24 h at 25 °C
  solubility at 24 h: 13.3 ± 0.21 mg/mL (≈ 29.1 mM)
[2]; oil or lipid, in Lauroglycole 90, 24 h at 25 °C
  solubility at 24 h: 10.8 ± 0.56 mg/mL (≈ 23.5 mM)
[2]; oil or lipid, in Nigella oil, 24 h at 25 °C
  solubility at 24 h: 35.4 ± 1.41 mg/mL (≈ 77.5 mM)
[2]; oil or lipid, in Soybean oil, 24 h at 25 °C
  solubility at 24 h: 1.06 ± 0.17 mg/mL (≈ 2.32 mM)
[2]; oil or lipid, in Sunflower oil, 24 h at 25 °C
  solubility at 24 h: 11.8 ± 0.46 mg/mL (≈ 25.7 mM)
[2]; oil or lipid, in Triacetine, 24 h at 25 °C
  solubility at 24 h: 3.09 ± 0.17 mg/mL (≈ 6.77 mM)
[2]; organic solvent or mixture, in PEG 400, 24 h at 25 °C
  solubility at 24 h: 8.49 ± 0.58 mg/mL (≈ 18.6 mM)
[2]; organic solvent or mixture, in Transcutol HP, 24 h at 25 °C
  solubility at 24 h: 41 ± 2.41 mg/mL (≈ 89.8 mM)
[2]; in Cremophor EL, 24 h at 25 °C
  solubility at 24 h: 28.3 ± 0.93 mg/mL (≈ 62 mM)
[2]; in Tween 20, 24 h at 25 °C
  solubility at 24 h: 6.19 ± 0.58 mg/mL (≈ 13.6 mM)
[2]; in Tween 80, 24 h at 25 °C
  solubility at 24 h: 4.56 ± 0.36 mg/mL (≈ 9.98 mM)
RAW 264.7 cells [3]; 0.05–1 μg/mL
  change in cell viability: No significant change in cell viability
RAW 264.7 cells [3]; 2.5–10 μg/mL
  reduction in cell viability: 25–30%
[4]
  OA released: 23.6 ± 1.25%
RAW 264.7 cells [5]; free OA 0.25–1 μg/mL with LPS 1 μg/mL
  effect against LPS-induced intracellular ROS production: mild but significant
[6]
  aqueous solubility: 1.75 ng/mL (≈ 3.83e-06 mM)
[7]
  oral bioavailability: 0.7%
[8]
  Papp at 1 h: 0.369 ×10⁻⁶ cm/s

## lipopolysaccharide [LPS, reference compound]
RAW 264.7 cells [1]; [9]
  cell viability: 70 ± 7%
RAW 264.7 cells [5]; [9]
  intracellular ROS levels: 165 ± 7%

From paper PMC9610975, “Microemulsions Enhance the In Vitro Antioxidant Activity of Oleanolic Acid in RAW 264.7 Cells” (Pharmaceutics, 2022)
